These results are taken from patent US20230416258A1, “BENZ[…], AND PREPARATION METHOD THEREFOR AND USE THEREOF” (CHINA PHARMACEUTICAL UNIVERSITY, priority 2020, published 2023).

In one data set the test system is KM mice. Description: Test for drug-induced disappearance of righting reflex in mice. It counts as in vivo. Conditions: single rapid bolus via tail vein. In short, it runs like this: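 Latency to, and duration of, righting reflex loss were recorded after one fast tail-vein bolus. Animals: randomized female KM mice weighing 18–25 g.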
Data set [1] has as its system SD rats. Description: Test for drug-induced disappearance of righting reflex in rats. Type of data set: in vivo. The conditions noted are these: single rapid bolus via tail vein. In short, it runs like this: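 Male SD rats (200-280 g) were randomly grouped and given a single rapid bolus dose via the tail vein. Latency to loss of righting reflex and its duration were recorded.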

Data set [2] relates to SD rats. Description: Induction of anesthesia in rats by continuous infusion of drug for 20 min. It counts as in vivo. Conditions: initial dose 20 mg/kg bolus, maintenance dose 0.2 (mg/kg)/min for 20 min, after infusion completed. The method, then: SD rats (male, 200-280 g) were randomly grouped and subjected to administration of an initial dose by rapid bolus via the tail vein, followed by a continuous infusion with a maintenance dose for 20 min.
After the infusion was completed, the duration of the righting reflex and the time from wake-up to recovery in rats were recorded.

Data set [3] has as its system GABA-activated Cl− current (GABAA receptor) in HEK 293T cells. Description: Effect of drugs on GABA-activated current in cells by cell patch clamp. It counts as cell-based. Conditions: for EC50: read-out: Positive enhancement EC50 (μM) for 2 μM GABA-induced current, −60 mV; for Enhancement percentage Emax for 2 μM GABA current (within 3-30 μM): −60 mV, corresponding concentration 20 μM. In short, it runs like this:
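Whole-cell patch clamp of HEK 293T cells held at −60 mV; compound applied together with 2 μM GABA in extracellular buffer (140 mM NaCl, HEPES, pH 7.4). Enhancement of GABA-evoked Cl− current recorded in the same cell, reported as maximal enhancement (Emax) and corresponding concentration.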
Background: In patch-clamp work, channel activity is measured electrically.

For a further data set, the system named is hCMEC/D3 cells. Description: Rate of drug passing through in vitro blood-brain barrier (Transwell). Type of data set: in vitro ADME. The conditions noted are these: hCMEC/D3 monolayer, compound 0.1 mg/mL. In short, it runs like this: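 Confluent hCMEC/D3 monolayers grown 10 days on Transwell inserts (5.0 μm pores). Compound at 0.1 mg/mL added to the lower chamber; upper-chamber concentration measured after 5 min, with permeability expressed as upper/lower concentration ×100%.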

A short description of data set [4]: In vitro plasma half-life of drug. Type of data set: in vitro ADME, SD rats. The conditions noted are these: plasma (heparin sodium); SD rat plasma, 37° C. The method, then:
Preparation of plasma: after the SD rats were fasted and kept with water for 12 h, blood was collected through orbital venous plexus. The freshly collected blood was added into a centrifuge tube containing heparin sodium and centrifuged at 5000 rpm for 10 min at 4° C. The supernatant was slowly pipetted and subpackaged. Finally, the collected SD rat plasma was sealed, marked, and stored at −20° C. for later use.
Preparation of target compound sample: the target compound was precisely weighed by an analytical balance and prepared into a stock solution at a concentration of 2 mg/mL (solvent: Vacetone:VTween 80:Vnormal saline=1:1:3) for later use.
Determination of in vitro half-life of target compound sample: 20 μL of test compound stock solution and 80 μL of rat plasma were mixed uniformly. Nine parallel ep tubes were taken, marked as corresponding test tubes of 0 min, 1 min, 2 min, 3 min, 5 min, 10 min, 15 min, 20 min, and 30 min, respectively, and placed in a water bath at 37° C. for incubation for 0 min, 1 min, 2 min, 3 min, 5 min, 10 min, 15 min, 20 min, and 30 min, respectively. 50 μL of mixed solution were taken from the corresponding ep tube at each time point, and […] of acetonitrile was added for precipitating protein. The mixture was vortexed for 10 min using a mixer and centrifuged at 12000 rpm for 15 min. Then, the supernatant was centrifuged at 12000 rpm for 10 min. The optimal detection method for the target compound in the MRM mode was determined using Intellistat software in UPLC-MS/MS, the peak area of the corresponding mass spectrum was integrated, and the plasma half-life of the compound was calculated.

The target of data set [5] is voltage-gated potassium channel hERG (Homo sapiens (Human), UniProt Q12809). Description: Predictor hERG fluorescence polarization assay. It counts as binding. The method, then: In this experiment, IC50 was calculated by detecting the effect of compounds at 8 concentrations on the […]. The procedures were performed exactly as for Predictor™ hERG fluorescence polarization assay kit. Before measuring fluorescence polarization, the assay plate was covered to protect the reagents from light and evaporation, and after incubation at room temperature for 2-4 h, the sample plate was centrifuged to read the fluorescence polarization value, with the excitation light at 540 nm and the emission light at 573 nm.
Sequence of voltage-gated potassium channel hERG (Q12809 whole entry, looked up): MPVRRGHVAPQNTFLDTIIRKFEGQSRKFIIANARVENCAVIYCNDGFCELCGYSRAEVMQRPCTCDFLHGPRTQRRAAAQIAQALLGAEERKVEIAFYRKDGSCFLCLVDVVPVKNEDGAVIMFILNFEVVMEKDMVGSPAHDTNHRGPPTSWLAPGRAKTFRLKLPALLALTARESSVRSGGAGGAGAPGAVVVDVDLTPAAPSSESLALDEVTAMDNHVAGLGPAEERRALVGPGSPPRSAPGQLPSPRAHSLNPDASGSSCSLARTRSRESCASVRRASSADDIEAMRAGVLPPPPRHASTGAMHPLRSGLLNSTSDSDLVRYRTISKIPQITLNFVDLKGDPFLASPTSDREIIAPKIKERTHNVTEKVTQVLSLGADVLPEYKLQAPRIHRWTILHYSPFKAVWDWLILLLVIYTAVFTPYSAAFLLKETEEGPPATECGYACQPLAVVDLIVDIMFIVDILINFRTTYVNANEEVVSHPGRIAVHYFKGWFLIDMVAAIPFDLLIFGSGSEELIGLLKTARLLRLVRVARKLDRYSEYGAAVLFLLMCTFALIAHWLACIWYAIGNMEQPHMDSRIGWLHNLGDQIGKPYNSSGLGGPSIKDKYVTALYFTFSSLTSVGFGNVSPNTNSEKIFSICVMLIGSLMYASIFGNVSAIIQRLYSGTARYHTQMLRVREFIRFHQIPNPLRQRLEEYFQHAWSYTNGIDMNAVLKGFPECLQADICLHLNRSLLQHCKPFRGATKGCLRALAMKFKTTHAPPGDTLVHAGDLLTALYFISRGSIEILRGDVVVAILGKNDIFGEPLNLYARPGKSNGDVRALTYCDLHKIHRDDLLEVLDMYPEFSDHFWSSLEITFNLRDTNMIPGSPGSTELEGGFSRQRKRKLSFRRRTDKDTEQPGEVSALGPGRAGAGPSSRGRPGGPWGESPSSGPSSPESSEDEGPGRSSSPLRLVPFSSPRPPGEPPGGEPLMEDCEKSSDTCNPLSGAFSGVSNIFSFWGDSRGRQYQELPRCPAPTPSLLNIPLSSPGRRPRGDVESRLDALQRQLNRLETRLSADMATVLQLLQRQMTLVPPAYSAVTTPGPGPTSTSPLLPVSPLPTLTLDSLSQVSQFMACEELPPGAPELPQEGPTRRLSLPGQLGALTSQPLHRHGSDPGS

Usually EC50 stands for the concentration that produces a half-maximal response. A word on the half-life: it is the time in which the quantity being followed falls by half. A high value points to slow decline. One may read the IC50 as the concentration needed to halve the response being measured. With `COC(=O)CC[C@@H]1N=C(c2ccccn2)c2cc(Br)ccc2-n2c(SCc3ccncc3)nnc21` [Compound 126, methyl (S)-3-(8-bromo-6-(pyridin-2-yl)-1-(((pyridin-4-yl)methyl)thio)-4H-benzo[f][1,2,4]triazolo[4,3-a][1,4]diazepin-4-yl)propionate], in the data set on KM mice (30 mg/kg), the Duration was determined as 5.05 min and the Latency stood at 0.16 min. In addition, in the data set with SD rats [1], the Latency is 0.26 min. In the data set on SD rats [2], the Duration of anesthesia turned out to be 9.52 min and the “Time from wake-up to recovery” value is 20.5 min. In data set [3], the EC50 is 0.45 µM and the “Enhancement percentage Emax for 2 μM GABA current (within 3-30 μM)” value (“Enhancement percentage Emax” for short) is 306% (20 μM). Also, in the data set with hCMEC/D3 cells, the “In vitro blood-brain barrier, compound permeability at 5 min” value (from here on “In vitro blood-brain barrier”) is given as 85.6%. Moreover, the half-life at 0.4 mg/mL in data set [4] amounted to 24.6 s. The IC50 in data set [5] is 72500 nM.
For the molecule `Cc1ncc2n1-c1ccc(Cl)cc1C(c1ccccc1F)=NC2` [Midazolam, reference compound], the IC50 in data set [5] is 7090 nM.
In the data set on KM mice (60 mg/kg), `COC(=O)CC[C@@H]1N=C(c2ccccc2Cl)c2cc(Cl)ccc2-n2c(SCCN)nnc21` [Compound 35, methyl (S)-3-(8-chloro-6-(2-chlorophenyl)-1-((2-aminoethyl)thio)-4H-benzo[f][1,2,4]triazolo[4,3-a][1,4]diazepin-4-yl)propionate] yielded a Duration of 40.26 min and a Latency of 0.18 min. Besides, the Latency in the data set on SD rats [1] amounted to 0.25 min. Moreover, in the data set with SD rats [2], the Duration of anesthesia is listed as 51.3 min and the “Time from wake-up to recovery” value was 33.8 min. In addition, in data set [3], the 50% effective concentration (EC50) was determined as 0.36 µM and the “Enhancement percentage Emax” value is listed as 318% (20 μM). Moreover, the “In vitro blood-brain barrier” value in the data set with hCMEC/D3 cells was determined as 84.6%. The same molecule gave a half-life at 0.4 mg/mL in data set [4] of 12.6 s.
Regarding `COC(=O)CC[C@@H]1N=C(c2ccccc2Cl)c2cc(Br)ccc2-n2c(SCCO)nnc21` [Compound 33, methyl (S)-3-(8-bromo-6-(2-chlorophenyl)-1-((2-hydroxyethyl)thio)-4H-benzo[f][1,2,4]triazolo[4,3-a][1,4]diazepin-4-yl)propionate], in the data set on KM mice (60 mg/kg), the Duration worked out at 6.41 min and the Latency amounted to 0.21 min. In the data set with KM mice (100 mg/kg), the Duration stood at 12.38 min and the Latency amounted to 0.22 min. The molecule also gave a Latency in the data set with SD rats [1] of 0.52 min. Besides, in the data set on SD rats [2], the Duration of anesthesia is 17.3 min and the “Time from wake-up to recovery” value came to 20.2 min. In addition, in data set [3], the EC50 came to 0.44 µM and the “Enhancement percentage Emax” value is 279% (20 μM). The “In vitro blood-brain barrier” value in the data set on hCMEC/D3 cells is listed as 83.4%. The same molecule had a half-life at 0.4 mg/mL in data set [4] of 53.4 s.
For the molecule `COC(=O)CC[C@@H]1N=C(c2ccccc2F)c2cc([N+](=O)[O-])ccc2-n2c(SCCN3CCOCC3)nnc21` [Compound 53, methyl (S)-3-(8-nitro-6-(2-fluorophenyl)-1-((2-morpholinoethyl)thio)-4H-benzo[f][1,2,4]triazolo[4,3-a][1,4]diazepin-4-yl)propionate], in the data set on KM mice (60 mg/kg), the Duration is recorded as 9.98 min and the Latency is listed as 0.42 min. Further, the Latency with SD rats [1] was found to be 0.18 min. In addition, in the data set on SD rats [2], the Duration of anesthesia is listed as 4.17 min and the “Time from wake-up to recovery” value is given as 13.5 min. Further, in data set [3], the EC50 came out at 0.53 µM and the “Enhancement percentage Emax” value is on record as 285% (20 μM). The “In vitro blood-brain barrier” value in the data set with hCMEC/D3 cells was found to be 69.9%. The molecule also registered a half-life at 0.4 mg/mL in data set [4] of 19.8 s.
